Patent publication US20090325959A1 (priority 2008, published 2009)
Where two headings read alike, the source gives them in different places.

Assays:
ROCK1 = molecular target: T1, ROCK1 (Homo sapiens, UniProt Q13464); test: Rho kinase inhibition assay (IMAP fluorescence polarization), ROCK1; type: biochemical;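 also: kinase reaction run 60 min at room temperature, then phosphorylated substrate captured on IMAP beads for 30 min, with fluorescence polarization read in mP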
T1 construct: purchased Upstate/Chemicon 14-601
T1 sequence (Q13464 17-535 limits assumed): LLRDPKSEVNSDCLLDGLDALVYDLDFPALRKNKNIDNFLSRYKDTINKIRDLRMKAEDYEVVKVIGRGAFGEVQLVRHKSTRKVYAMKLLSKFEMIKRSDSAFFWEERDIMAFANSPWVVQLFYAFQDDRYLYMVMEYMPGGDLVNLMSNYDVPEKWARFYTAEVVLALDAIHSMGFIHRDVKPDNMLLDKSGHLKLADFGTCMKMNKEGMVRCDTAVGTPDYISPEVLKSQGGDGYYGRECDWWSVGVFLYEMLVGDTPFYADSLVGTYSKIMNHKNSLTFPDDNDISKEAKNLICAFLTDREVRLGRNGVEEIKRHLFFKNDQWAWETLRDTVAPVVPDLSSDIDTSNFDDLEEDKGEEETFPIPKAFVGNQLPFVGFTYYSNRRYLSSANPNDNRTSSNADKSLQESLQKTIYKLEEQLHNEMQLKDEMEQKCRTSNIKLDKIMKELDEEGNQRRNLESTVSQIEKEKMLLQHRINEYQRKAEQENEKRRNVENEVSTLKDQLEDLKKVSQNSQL
Experimental: (§1) Following the pre-incubation, 10 μM ATP was added to initiate the reaction. After 60 minutes at room temperature, Molecular Devices IMAP™ binding solution was added to bind phosphorylated substrate. After 30 minutes of incubation in the presence of the IMAP™ beads, the fluorescence polarization was read and the ratio was reported as mP. IC50 values for compounds and EC50 values for ATP were calculated using the Prism software from Graphpad.

ROCK2 = molecular target: T2, ROCK2 (Homo sapiens, UniProt O75116); test: Rho kinase inhibition assay (IMAP fluorescence polarization), ROCK2; type: biochemical;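 also: kinase reaction started with 10 µM ATP and run 60 min at room temperature, then phosphorylated substrate captured on IMAP beads for 30 min and fluorescence polarization read in mP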
T2 construct: purchased Upstate/Chemicon 14-451
T2 sequence (O75116 11-552 limits assumed): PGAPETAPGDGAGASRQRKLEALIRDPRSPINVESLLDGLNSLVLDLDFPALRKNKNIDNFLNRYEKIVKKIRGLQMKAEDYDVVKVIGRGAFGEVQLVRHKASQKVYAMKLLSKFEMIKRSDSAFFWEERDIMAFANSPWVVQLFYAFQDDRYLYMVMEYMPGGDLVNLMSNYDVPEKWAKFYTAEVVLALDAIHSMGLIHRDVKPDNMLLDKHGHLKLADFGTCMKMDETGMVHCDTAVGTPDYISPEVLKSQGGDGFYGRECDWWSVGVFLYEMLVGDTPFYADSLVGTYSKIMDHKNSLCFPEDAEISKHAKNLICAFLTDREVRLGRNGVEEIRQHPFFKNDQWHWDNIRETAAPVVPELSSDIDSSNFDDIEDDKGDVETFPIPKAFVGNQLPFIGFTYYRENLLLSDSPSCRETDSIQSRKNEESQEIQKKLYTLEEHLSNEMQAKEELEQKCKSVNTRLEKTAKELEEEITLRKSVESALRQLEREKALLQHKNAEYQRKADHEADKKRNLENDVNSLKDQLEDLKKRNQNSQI
Experimental: as §1

[1] = tested on: A-10 rat thoracic aorta cells; test: PDGF-stimulated smooth muscle cell proliferation assay (BrdU incorporation); type: cell-based; settings: A-10 cells, 10 ng/mL PDGF, BrdU incorporation, percent of total challenge-stimulated proliferation; for Percent of PDGF Induced Proliferation at 1 μM Avg: 1 μM test compound; for Percent of PDGF Induced Proliferation at 10 μM Avg: 10 μM test compound;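 as to all read-outs here: cells kept in serum-free medium, BrdU allowed to incorporate for 24 h, then incorporated label detected fluorometrically with an anti-BrdU antibody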
Akt3 human enzyme = molecular target: T3, Akt3 human enzyme (Homo sapiens, UniProt Q9Y243); test: Akt3 inhibition assay (IMAP FP); type: biochemical;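 also: kinase reaction run 60 min at room temperature after 30 µM ATP start, phosphorylated substrate captured on IMAP beads and read as fluorescence polarization (mP)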
T3 construct: purchased Upstate Chemicon 14-502
T3 sequence (Q9Y243 whole entry): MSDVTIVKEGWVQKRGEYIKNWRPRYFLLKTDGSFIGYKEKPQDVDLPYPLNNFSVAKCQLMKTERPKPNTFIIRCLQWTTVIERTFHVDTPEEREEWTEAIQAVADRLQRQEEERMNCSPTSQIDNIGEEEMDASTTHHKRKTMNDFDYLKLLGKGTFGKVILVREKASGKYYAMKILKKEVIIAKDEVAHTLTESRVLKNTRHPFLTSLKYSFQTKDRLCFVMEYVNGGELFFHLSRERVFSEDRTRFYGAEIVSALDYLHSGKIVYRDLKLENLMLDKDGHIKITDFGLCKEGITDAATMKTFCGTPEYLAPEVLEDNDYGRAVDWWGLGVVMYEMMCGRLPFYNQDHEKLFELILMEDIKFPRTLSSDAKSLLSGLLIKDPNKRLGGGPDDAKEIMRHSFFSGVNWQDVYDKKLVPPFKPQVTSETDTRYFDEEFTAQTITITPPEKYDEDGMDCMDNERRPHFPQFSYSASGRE

p70S6K human enzyme = molecular target: T4, p70S6K human enzyme (Homo sapiens, UniProt P23443, T412E); test: p70S6K inhibition assay (IMAP FP); type: biochemical;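 also: kinase reaction run at room temperature, phosphorylated substrate captured on IMAP beads and read as fluorescence polarization in mP, IC50 then converted to Ki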
T4 construct: purchased Upstate Chemicon 14-486
T4 sequence (P23443 1-421 T412E limits assumed): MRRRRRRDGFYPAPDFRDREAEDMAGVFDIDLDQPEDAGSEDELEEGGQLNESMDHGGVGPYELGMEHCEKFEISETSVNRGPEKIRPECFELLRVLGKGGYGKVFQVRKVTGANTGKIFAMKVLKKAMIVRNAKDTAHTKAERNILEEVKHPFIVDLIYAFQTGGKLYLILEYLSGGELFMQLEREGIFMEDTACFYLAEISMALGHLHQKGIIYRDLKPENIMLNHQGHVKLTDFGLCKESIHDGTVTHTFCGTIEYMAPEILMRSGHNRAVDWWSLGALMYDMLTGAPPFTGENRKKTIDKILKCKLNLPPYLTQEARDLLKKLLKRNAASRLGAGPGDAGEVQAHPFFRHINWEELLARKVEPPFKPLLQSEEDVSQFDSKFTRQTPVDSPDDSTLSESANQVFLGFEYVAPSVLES

[2] = Compound plasma concentrations in unsensitized mice at 15 min post administration; type: in vivo; settings: mouse, 15 μmol/kg; mean compound plasma concentration in mice at 15 minutes post oral administration; read-out: Mouse Oral PK
[3] = 10 μM ATP, read-out: ROCK2 Ki, Avg
[4] = 30 μM ATP, Ki=IC50/(1+([ATP Challenge]/EC50 ATP)), read-out: Akt3 Ki, Avg
[5] = 30 μM ATP, Ki=IC50/(1+([ATP Challenge]/EC50 ATP)), read-out: p70S6K Ki, Avg
[6] = average Ki, read-out: p70S6K Ki

SMILES | Ki (ROCK1; Avg, 10 μM ATP) | Ki (ROCK1; average Ki) | Ki (ROCK2; [3]) | Ki (ROCK2; average Ki, read-out: ROCK2 Ki) | Percent of PDGF Induced Proliferation at 1 μM Avg [1] | Percent of PDGF Induced Proliferation at 10 μM Avg [1] | Ki (Akt3 human enzyme; [4]) | Ki (Akt3 human enzyme; average Ki, read-out: Akt3 Ki) | Ki (p70S6K human enzyme; [5]) | Ki (p70S6K human enzyme; [6]) | concentration at 15 min [2]
NC(=O)Cn1ccc2cc(CN3CCC[C@H](Nc4ccc5[nH]ncc5c4)C3)ccc21 [Compound 1.165, (S)-2-(5-((3-(1H-indazol-5-ylamino)piperidin-1-yl)methyl)-1H-indol-1-yl)acetamide] | 50.7 nM | 50.7 nM | 3.4 nM | 3.4 nM | 74.8% | 57.9% | 4140 nM | 4140 nM | 1630 nM | 1630 nM | 94 nM
COc1ccc(CN2CC[C@@H](Nc3cccc4cnccc34)C2)cc1 [Compound 2.047, (R)-N-(1-(4-methoxybenzyl)pyrrolidin-3-yl)isoquinolin-5-amine] | 26.4 nM | 26.4 nM | 7 nM | 7 nM | 65.3% | 53.8% | 1940 nM | 1940 nM | 437 nM | 437 nM | 3 nM
Cc1ccc(CN2CCC[C@@H](Nc3ccc4[nH]ncc4c3)C2)cc1O [Compound 1.173, (R)-5-((3-(1H-indazol-5-ylamino)piperidin-1-yl)methyl)-2-methylphenol] | 15.1 nM | 15.1 nM | 3.6 nM | 3.6 nM | 55.4% | 35.8% | 157 nM | 157 nM | 340 nM | 340 nM | 144 nM
CC(C)c1ccc(CN2CCC[C@@H](Nc3ccc4[nH]ncc4c3)C2)cc1 [Compound 1.204, (R)-N-(1-(4-isopropylbenzyl)piperidin-3-yl)-1H-indazol-5-amine] | 196 nM |  | 31.9 nM |  | 79.3% | 42.8% | 1910 nM |  | 927 nM |  | 
Cc1ccc(CN2CCC[C@H](Nc3ccc4[nH]ncc4c3)C2)cc1O [Compound 1.151, (S)-5-((3-(1H-indazol-5-ylamino)piperidin-1-yl)methyl)2-methylphenol] | 22.8 nM |  | 2.9 nM |  | 51.0% | 63.8% | 709 nM |  | 531 nM |  | 
FC(F)(F)c1ccc(CN2CCC[C@H](Nc3ccc4[nH]ncc4c3)C2)cc1 [Compound 1.167, (S)-N-(1-(4-(trifluoromethyl)benzyl)piperidin-3-yl)-1H-indazol-5-amine] | 119 nM |  | 18.5 nM |  | 78.8% | 52.7% | 8250 nM |  | 1070 nM |  | 
CC(C)c1ccc(CN2CCC[C@H](Nc3ccc4[nH]ncc4c3)C2)cc1 [Compound 1.180, (S)-N-(1-(4-isopropylbenzyl)piperidin-3-yl)-1H-indazol-5-amine] | 138 nM |  | 23.1 nM |  | 92.4% | 64.8% | 12000 nM |  | 1030 nM |  | 
Clc1ccc(CN2CC[C@@H](Nc3cccc4cnccc34)C2)cc1 [Compound 2.027, (R)-N-(1-(4-chlorobenzyl)pyrrolidin-3-yl)isoquinolin-5-amine] | 15.7 nM |  | 7.4 nM |  | 79.4% | 64.4% | 658 nM |  | 509 nM |  | 
c1cc(N[C@@H]2CCN(Cc3ccc(C4CC4)cc3)C2)c2ccncc2c1 [Compound 2.022, (R)-N-(1-(4-cyclopropylbenzyl)pyrrolidin-3-yl)isoquinolin-5-amine] | 44.8 nM |  | 15.3 nM |  | 89.7% | 39.4% | 4120 nM |  | 501 nM |  | 
OCCn1ccc2ccc(CN3CC[C@@H](Nc4cccc5cnccc45)C3)cc21 [Compound 2.060, (R)-2-(6-((3-(isoquinolin-5-ylamino)pyrrolidin-1-yl)methyl)-1H-indol-1-yl)ethanol] | 4.9 nM | 4.9 nM | 3.2 nM | 3.2 nM |  |  | 329 nM | 329 nM | 181 nM | 181 nM | 308 nM
CSc1cccc(CN2CCC[C@H](Nc3ccc4[nH]ncc4c3)C2)c1 [Compound 1.158, (S)-N-(1-(3-(methylthio)benzyl)piperidin-3-yl)-1H-indazol-5-amine] | 64.1 nM | 64.1 nM | 5.1 nM | 5.1 nM |  |  | 5910 nM | 5910 nM | 1970 nM | 1970 nM | 102 nM
NC(=O)c1cccc(CN2CCC[C@H](Nc3ccc4[nH]ncc4c3)C2)c1 [Compound 1.219, (8)-3-((3-(1H-indazol-5-ylamino)piperidin-1-yl)methyl)benzamide] | 344 nM | 344 nM | 15.4 nM | 15.4 nM |  |  | 38300 nM | 38300 nM | 4970 nM | 4970 nM | 1680 nM
CCCCS(=O)(=O)Nc1cc(CN2CCC[C@H](Nc3ccc4[nH]ncc4c3)C2)ccc1C [Compound 1.236, (S)-N-(5-((3-(1H-indazol-5-ylamino)piperidin-1-yl)methyl)-2-methylphenyl)butane-1-sulfonamide] | 49.3 nM | 49.3 nM | 2.1 nM | 2.1 nM |  |  | 3720 nM | 3720 nM | 2760 nM | 2760 nM | 48 nM
CCOC(=O)COc1cccc(CN2CCC[C@H](Nc3ccc4[nH]ncc4c3)C2)c1 [Compound 1.200, (S)-ethyl 2-(3-((3-(1H-indazol-5-ylamino)piperidin-1-yl)methyl)phenoxy)acetate] | 76.5 nM | 76.5 nM | 5.9 nM | 5.9 nM |  |  | 10600 nM | 10600 nM | 3900 nM | 3900 nM | 0 nM
CS(=O)(=O)Nc1cc(CN2CCC[C@@H](Nc3ccc4[nH]ncc4c3)C2)ccc1Cl [Compound 1.212, (R)-N-(5-((3-(1H-indazol-5-ylamino)piperidin-1-yl)methyl)-2-chlorophenyl)methanesulfonamide] | 44.2 nM | 44.2 nM | 3.9 nM | 3.9 nM |  |  | 390 nM | 390 nM | 894 nM | 894 nM | 863 nM
CSc1ccc(CN2CCCC(Nc3cccc4cnccc34)C2)cc1 (stereo not shown) [Compound 2.009, N-(1-(4-(methylthio)benzyl)piperidin-3-yl)isoquinolin-5-amine] |  |  |  |  | 128.9% | 56.5% | 3730 nM |  | 1280 nM |  | 
Cc1ccc(CN2CCC[C@@H](Nc3ccc4[nH]ncc4c3)C2)c(C)c1 [Compound 1.137, (R)-N-(1-(2,4-dimethylbenzyl)piperidin-3-yl)-1H-indazol-5-amine] | 25.8 nM | 36.3 nM | 5.1 nM | 7.2 nM |  |  | 198 nM | 198 nM | 354 nM | 354 nM | 557 nM
c1cc2cc(CN3CCC[C@H](Nc4ccc5[nH]ncc5c4)C3)ccc2o1 [Compound 1.150, (S)-N-(1-(benzofuran-5-ylmethyl)piperidin-3-yl)-1H-indazol-5-amine] | 33.2 nM | 33.2 nM | 3.2 nM | 3.2 nM |  |  | 3180 nM | 3180 nM | 1270 nM | 1270 nM | 1390 nM
c1cc(N[C@@H]2CCN(Cc3ccc4occc4c3)C2)c2ccncc2c1 [Compound 2.055, (R)-N-(1-(benzofuran-5-ylmethyl)pyrrolidin-3-yl)isoquinolin-5-amine] | 16 nM | 16 nM | 6.4 nM | 6.4 nM |  |  | 978 nM | 978 nM | 312 nM | 312 nM | 656 nM
Cc1ccc(CN2CCC[C@H](Nc3ccc4[nH]ncc4c3)C2)cc1NS(C)(=O)=O [Compound 1.233, (S)-N-(5-((3-(1H-indazol-5-ylamino)piperidin-1-yl)methyl)-2-methylphenyl)methanesulfonamide] | 47.2 nM | 47.2 nM | 1.3 nM | 1.3 nM |  |  | 2630 nM | 2630 nM | 2000 nM | 2000 nM | 41 nM
c1ccc2c(CN3CCC[C@@H](Nc4ccc5[nH]ncc5c4)C3)c[nH]c2c1 [Compound 1.252, (R)-N-(1-((1H-indol-3-yl)methyl)piperidin-3-yl)-1H-indazol-5-amine] | 30.5 nM | 30.5 nM | 4.5 nM | 4.5 nM |  |  | 205 nM | 205 nM | 171 nM | 171 nM | 1260 nM
